Molecules are shown by their SMILES.

These results are taken from patent US20260027073A1, “USE OF SMALL-MOLECULE COMPOUND HAVING NAPHTHYLAMINE STRUCTURE” (HANGZHOU PHECDAMED CO., LTD., priority 2023, published 2026).

Experiment [1] concerns APP/PS1 mice. The experiment can be described thus: Cognitive dysfunction in APP/PS1 mice. The class given is in vivo. The procedure:
Male transgenic APP/PS1 mice were purchased from the Model Animal Research Center of Nanjing University, and after being raised to 12 weeks old, the APP/PS1 mice were divided into three groups: normal C57 group (WT), model control group (APP/PS1+Vehicle), and TJ01-013 treatment group (APP/PST+TJ01-013). The mode of administration was by oral gavage, normal group and model control group were administered vehicle by oral gavage, the concentration of TJ01-013 was 30 mg/kg, the gavage volume was 5 ml/kg, the frequency of administration was once a day, and the administration period was 3 months. • (2) Water maze experiment
The water maze device is a circular pool (140 cm in diameter) filled with dissolved titanium dioxide water, keeping the water temperature at 22° C. A platform with a diameter of 12 cm was placed at a fixed position 1 cm below the water surface, and the mice were trained in four quadrants every day for five consecutive days. Each quadrant lasted 60 seconds or until the mice found the platform. […] All parameters were recorded by a video tracking system.
Mouse heart perfusion for brain extraction: APP/PS1 mice and control C57BL/6J mice were anesthetized, and after they became unconscious, the limbs were fixed on a dissection table in a fuming hood, and the abdominal skin was cut with scissors after alcohol disinfection to expose the liver. The diaphragm was quickly cut, and the heart was exposed by turning upward after clamping the xiphoid with hemostatic forceps. Prepared PBS was injected into the left ventricle, noting that the direction was toward the aorta. The peristaltic pump was turned on after opening the right auricle and the blood was drained at a low rate at first. When the heart stopped beating or the fluid pumped at the right auricle was clarified and colorless, the mouse liver can be seen to turn grayish white. The fur was cut open along the midline of the mouse hindbrain with scissors, and the skull was exposed, then forceps were inserted from the criss-cross of the mouse's brain shell, and scissors were used to assist in peeling off the skull, and then the intact whole brain was removed. The fresh mouse whole brain was halved and placed in a 5 mL centrifuge tube, and 4 mL of 4% paraformaldehyde fixative was added to fix for 24 h, sections were made for antigenic repair, incubated for 30 min with dropwise adding of BSA at a concentration of 3-5%, and stained overnight with polyclonal rabbit anti-GFAP antibody (1:100) and mouse anti-β-amyloid protein 1-16 antibody (1:100), and after the sections were washed in PBS three times, the corresponding fluorescent secondary antibody was added dropwise to cover the tissue, and the sections were incubated in dark for 1 h, the slides were washed and stained with DAPI staining solution added dropwisely for 10 min, and the sections were sealed with resin sealer, and finally imaged with Cytation3.
Mouse brain tissue homogenates were prepared according to the brain tissue homogenization method described in the Life Technologies ELISA Technical Guide. […]

The subject of experiment [2] is mouse bone marrow mesenchymal stem cells. Put plainly: Senescence of mouse bone marrow mesenchymal stem cells by passaging. The class given is cell-based. Conditions: 10 μM. The protocol:
Extraction of bone marrow mesenchymal stem cells: C57 mice weighing about 25 g were selected, and after anesthesia with 30 mg/kg chloral hydrate, the femur and tibia were removed and put into a Petri dish, one end of the femur and tibia were cut off to fully expose the bone marrow cavity, and a 1 ml syringe was used to extract the DMEM/F12 medium, and the tip of the needle was pricked into the bone marrow cavity to rinse the bone marrow, and a 15 ml centrifuge tube was connected underneath to make the rinsed liquid flow into the centrifuge tube, and the rinsing was repeated several times until the bone marrow cavity was rinsed clean. The rinsed suspension was blown repeatedly with a pipette to make the cells in the rinsed liquid as single-cell as possible, and the supernatant was transferred to another tube after standing still for a few minutes, and the cell suspension was continued to blow to make the cells well dispersed. The obtained cell suspension was centrifuged at 1000 rpm for 5 min, and after removing the residual supernatant, 1 ml of DMEM/F12 medium was added, and after repeated blowing, the CD45-Sca-1+PDGFRα+high-purity primary mouse bMSC cell line was sorted out by flow cytometric sorting, and the sorted cells were dispensed into culture flasks. The cells were observed under the microscope and placed in the incubator at 37° C., 5% CO2 to incubate, and the solution was replaced for 72 h, the drug administration treatment was performed at the first passaging, and then 10 μM TJ01-013 was given to each passaging thereafter, labeled as Con-Y at the 2nd generation, and labeled as Con-O at the 9th generation, and the drug administration treatment groups were given until the 9th generation, and all the cells were placed under the microscope for observing the morphology of the cells, and the proportion of the SA-β-gal+ cells was counted. The levels of the DNA damage marker γ-H2AX and the heterochromatin modification H3K9me3 after TJ01-013 treatment were detected by immunofluorescence technique (procedure described previously).

Consider `O=C(O)C[S+]([O-])c1cc(NS(=O)(=O)c2ccc(Br)cc2)c2ccccc2c1O` (centres unmarked) [I-1], for which the “time to find the platform (water maze)” value in experiment [1] (30 mg/kg oral gavage, 3 months, FIG. 42) was “significantly reduced”. Further, in experiment [1] (FIG. 44), the “astrocyte activation in the hippocampal region (GFAP)” value was “significantly reduced”; the “number and size of Aβ plaques” value is “significant decrease”. For the same compound, in experiment [1] (FIG. 45), the “amount of Aβ in the brain tissues (Elisa)” value was “significantly decreased”. Also, the “number of crossing over the platform (water maze)” value in experiment [1] (vs APP/PS1 Vehicle group, FIG. 43) is “significantly larger”. Also, the “percentage of SA-β-gal+ cells” value in experiment [2] (9th generation, vs Con-O, FIG. 48) is listed as “significantly decreased”. Besides, the “expression level of heterochromatin-modified H3K9me3” value in experiment [2] (Con-O cells, FIG. 50) is on record as “restored its expression level to some extent”. The “level of DNA damage marker γ-H2AX” value in experiment [2] (aged cells, FIG. 49) is reported as “significantly reduced”.
